Test results reported in article PMC5332327 (Journal of the American Chemical Society, 2017).

Target: Nan[KS1][AT1] (Streptomyces nanchangensis, UniProt Q7WTF5)
Assay: coupled KS-KR assay, chiral GC-MS of diketide methyl ester
Format: biochemical
Conditions: holo-NanACP1, NADPH, KR domain, pH 7.2

Sequence of Nan[KS1][AT1] (Q7WTF5 1029-1965): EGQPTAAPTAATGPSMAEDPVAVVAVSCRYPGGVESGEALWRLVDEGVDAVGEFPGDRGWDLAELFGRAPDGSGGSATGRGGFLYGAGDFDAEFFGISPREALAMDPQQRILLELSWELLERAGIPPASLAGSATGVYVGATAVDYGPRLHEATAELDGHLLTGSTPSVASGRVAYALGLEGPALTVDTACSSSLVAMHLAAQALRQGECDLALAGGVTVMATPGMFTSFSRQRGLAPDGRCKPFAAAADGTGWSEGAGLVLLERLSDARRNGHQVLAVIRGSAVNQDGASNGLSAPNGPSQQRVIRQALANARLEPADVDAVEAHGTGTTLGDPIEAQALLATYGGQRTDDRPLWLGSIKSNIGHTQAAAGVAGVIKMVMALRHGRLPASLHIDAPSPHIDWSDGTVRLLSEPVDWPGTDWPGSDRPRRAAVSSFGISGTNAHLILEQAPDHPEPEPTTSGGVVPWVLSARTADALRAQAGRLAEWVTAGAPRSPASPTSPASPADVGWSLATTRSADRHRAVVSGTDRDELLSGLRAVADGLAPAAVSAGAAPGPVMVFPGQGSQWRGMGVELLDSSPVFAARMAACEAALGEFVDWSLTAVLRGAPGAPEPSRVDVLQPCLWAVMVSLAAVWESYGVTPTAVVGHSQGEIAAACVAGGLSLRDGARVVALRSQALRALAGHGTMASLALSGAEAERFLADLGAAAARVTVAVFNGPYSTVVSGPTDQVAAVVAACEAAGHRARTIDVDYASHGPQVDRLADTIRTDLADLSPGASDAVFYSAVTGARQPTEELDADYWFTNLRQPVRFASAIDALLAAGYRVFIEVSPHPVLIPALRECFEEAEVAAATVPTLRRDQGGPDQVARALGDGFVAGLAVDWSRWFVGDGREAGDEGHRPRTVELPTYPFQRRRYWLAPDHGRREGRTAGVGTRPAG

Row | Structure (SMILES) | coupled KS-KR assay, chiral GC-MS of diketide methyl ester (5 mM propionyl-SNAC, methylmalonyl-CoA, primer) | coupled KS-KR assay, chiral GC-MS of diketide methyl ester (300 uM methylmalonyl-CoA, propionyl-SNAC, extender)
1 | CCC(=O)SCCNC(C)=O [propionyl-SNAC] | condensation between propionyl-SNAC and methylmalonyl-CoA catalyzed by the polyether synthase didomain Nan[KS1][AT1] | –
2 | CC(C(=O)O)C(=O)SCCNC(=O)CCNC(=O)[C@H](O)C(C)(C)COP(=O)(O)OP(=O)(O)OC[C@H]1O[C@@H](n2cnc3c(N)ncnc32)[C@H](O)[C@@H]1OP(=O)(O)O (some centres unmarked) [methylmalonyl-CoA] | – | condensation between propionyl-SNAC and methylmalonyl-CoA catalyzed by the polyether synthase didomain Nan[KS1][AT1]
